System: CT26 mouse colon carcinoma cell strain
Assay: In vivo anti-tumor activity in mouse CT26 colon tumor model
Protocol: The experimental purposes was to investigate the in vivo anti-tumor effect of the combination of the test compound with a mouse anti-PD-1 antibody against the mouse colon cancer in CT26 tumor model.
Female Balb/c mice were subcutaneously inoculated with CT26 mouse colon carcinoma cell strain, and randomly grouped based on their body weight, after inoculation. And, they were administered as follows.
To the first group (a control group), the administration was started in the afternoon of the day of vaccination in a way that vehicle 1 (10% DMSO+10% Solutol+80% DDH2O) was administered intragastrically twice a day at a dosage of 0.1 mL/10 g body weight each time, and when the tumor had grown to a volume of about 60 mm^3 after the inoculation, it started to do administration in a way that vehicle 2 (DPBS) was given twice a week through intraperitoneal injection at a dosage of 0.1 mL/10 g body weight at each time.
To the second group, when the tumor had grown to a volume of about 60 mm^3 after the inoculation, it started to do administration in a way that anti-mouse PD-1 antibody (RMP1-14, supplied by BioXcell) was given through intraperitoneal injection twice a week at a dosage of 3 mg/kg body weight at each time. […]
During the experiment, the mice were weighed three times a week, and after the tumor formed, the tumor volume was measured three times a week at each time when the body weight was measured, and calculated following the equation: length×width^2/2. Tumor proliferation rate was calculated following the equation: Tumor proliferation rate=Tumor volume in the treatment group/Tumor volume in the control group×100%.
The differences between groups were statistically analyzed by Student's t-test, and p<0.05 was considered to be a significant difference.

COc1cc2nccc(Oc3ccc(NC(=O)NC4CC4)c(Cl)c3F)c2cc1C(N)=O [Example 1]
Tumor proliferation rate (day 25, Example 1 10 mg/kg intragastrically once a day in combination with anti-mouse PD-1 antibody RMP1-14 3 mg/kg i.p. twice a week, female Balb/c mice, p<0.01): 15.38%
Anti-tumor activity in combination with PD-1 antibody (in words) (mouse CT26 tumor model, combination with PD-1 antibody): significant anti-tumor activity
Effect on anti-tumor effect of PD-1 antibody (in words) (tumor volumes on day 25, combination group vs single antibody group, p<0.05): significantly enhanced anti-tumor effect on PD-1 antibody
